Results taken from patent US7354904B2, “Bacteriocin inducer peptides” (priority 2005, dated 2008).

Key:
[1] = tested on: Enterococcus faecium LWP 50-52; experiment: Influence of signal peptide on bacteriocin 50-52 production, flask culture (fraction protein at 215 nm, activity by spot-test against C. jejuni and S. enteritidis); format: cell-based
[2] = tested on: Streptococcus cricetus LWP 760; experiment: Bacteriocin 760 production with signal peptide under scaled-up conditions (bioreactor); format: cell-based; conditions: V-61 reactor, 10% Brucella Broth, LWP 760, LWP 320, peptide 0.22 mg added after two hours, pH 6.9, 37° C., 12 hours
[3] = LWP 50-52 + LWP 320, LWP 760 peptide 0.1 mg/ml

## WNKYKTNWVLSVCNTGCACAAVKGLT (listed as Streptococcus cricetus) [LWP 760 Signal Peptide, signal peptide isolated from Streptococcus cricetus LWP 760, stimulates bacteriocin 760 production]
[1]; [3]
  Activity: 819,200 AU/ml
  Protein Concentration: 0.25 mg/mL
  Protein increase vs. Control: 1
  Specific Activity: 3,276,800 AU/mg
  mg protein/liter: 82.5 mg protein/liter
[1]; signal peptide of another strain added to LWP 50-52 + LWP 320
  yield of bacteriocin 50-52 versus the control: did not increase
[2]
  Activity: 13,107,200 AU/ml
  Increase in the amount of protein produced vs. in control: 4.25
  Protein Concentration: 3.4 mg/mL
  Protein produced per one liter of medium: 510 mg
  Specific Activity: 3,855,058 AU/mg
